Assay results reported in patent US10851372B2, “Exosome packaging of nucleic acids” (University of Ottawa, priority 2015, dated 2020).

Key:
Macrophage = assay: Exosomal enrichment of endogenous miR-451, RT-qPCR in exosomes vs exosome-producing cells; type: cell-based, mouse; conditions: exosome-depleted or serum-free media
Procedure: (§1) Firstly, enrichment of endogenously expressed miR-451 in exosomes was compared to other endogenously expressed microRNAs (miR-16, let-7a).
(§2) RT-qPCR was performed with the MiScript II Reverse Transcriptase system (Qiagen) and GoTaq® qPCR Master Mix (Promega A6002) using primers allowing amplification of the DNA produced in the reverse transcriptase step. Results were normalized to the ubiquitous miRNA let-7a and miR-16.
(§3) RT-qPCR was performed with (Promega A6002) or Quantitect qPCR master mix (Qiagen) using primers allowing amplification of the DNA produced in the reverse transcriptase step using the following primers mir-451: […] (SEQ ID NO: 14), let-7a: […] (SEQ ID NO: 15), mir-16: […] (SEQ ID NO: 16).

JAWSII = assay: as above; type: cell-based, mouse; conditions: exosome-depleted or serum-free media
Procedure: as §1, §2, §3

N2A = assay: as above; type: cell-based, mouse; conditions: exosome-depleted or serum-free media
Procedure: as §1, §2, §3

BV2 = assay: as above; type: cell-based, mouse; conditions: exosome-depleted or serum-free media
Procedure: as §1, §2, §3

C8S = assay: as above; type: cell-based, mouse; conditions: exosome-depleted or serum-free media
Procedure: as §1, §2, §3

NSC34 = assay: as above; type: cell-based, mouse; conditions: exosome-depleted or serum-free media
Procedure: as §1, §2, §3

MN1 = assay: as above; type: cell-based, mouse; conditions: exosome-depleted or serum-free media
Procedure: as §1, §2, §3

C8D30 = assay: as above; type: cell-based, mouse; conditions: exosome-depleted or serum-free media
Procedure: as §1, §2, §3

C8D1A = assay: as above; type: cell-based, mouse; conditions: exosome-depleted or serum-free media
Procedure: as §1, §2, §3

MSC Line = assay: as above; type: cell-based; conditions: exosome-depleted or serum-free media
Procedure: as §1, §2, §3

[1] = tested on: exosomes from multiple cell types and sources; conditions: plasma, serum, mast cells, glioblastoma, B cells, cardiac progenitor cells, MSC; cited from earlier work
ESC = assay: Exosomal enrichment of endogenous miR-451, RT-qPCR in exosomes vs exosome-producing cells; type: cell-based, human
Procedure: as §1, §2, §3

Primary MSC = assay: as above; type: cell-based, human; conditions: exosome-depleted or serum-free media
Procedure: as §1, §2, §3

MEF = assay: as above; type: cell-based, mouse
Procedure: as §1
(§4) Exosomes were enriched by differential centrifugation as previously described (Thery, 2006, Curr Protoc Cell Biol, Chapter 3, Unit 3 22). Briefly, MEF or MDA-MB-231 cells were cultured in media containing FBS depleted of exosomes by centrifugation at 100 000 g for 16 h (Thery, 2006, Curr Protoc Cell Biol, Chapter 3, Unit 3 22). To purify exosomes supernatant from cell cultures was centrifuged at 400 g (7 min), 2000 g (10 min) and 10 000 g (30 min, SW32 rotor). At each step the supernatant was recovered. After centrifugation at 100 000 g (1 h 10 min, SW32 rotor) the supernatant was removed and the pellet was resuspended. The pellet was washed in PBS by a final centrifugation at 100 000 g (20 min, TLA100.3 rotor). The exosome-enriched pellet was re-suspended in PBS for further analyses.
RT-qPCR was performed with the MiScript II Reverse Transcriptase system (Qiagen) and GoTaq® qPCR Master Mix (Promega A6002) using primers allowing amplification of the DNA produced in the reverse transcriptase step. […]
RT-qPCR was performed with (Promega A6002) or Quantitect qPCR master mix (Qiagen) using primers allowing amplification of the DNA produced in the reverse transcriptase step using the following primers mir-451: […] […]

MDA-MB-231 = assay: Exosomal enrichment of endogenous miRNAs, RT-qPCR in exosomes vs exosome-producing cells; type: cell-based, human
Description: Exosomes from breast epithelial cell line (MDA-MB-231) or mouse embryonic fibroblasts (MEF) were purified and multiple techniques were used to confirm the identity and purity of exosome preparations (see FIG. 1A-D). Dynamic light scattering and Nanosight particle tracking was used to ensure that exosomes purified were highly pure populations of particles with diameter of 100 nm, as expected for exosomes. […] RNA was isolated from these exosomes and the cells that produced them, and RT-qPCR was used to characterize the relative abundance of miRNAs.
as §1, §4, §2

[2] = tested on: Ago2 knockout mouse embryonic fibroblasts; assay: Effect of Ago2 on exosomal enrichment of siRNA from pre-miR-451 structural mimic (qRT-PCR); type: cell-based; conditions: compared to wild-type cells or Ago2 knockout cells rescued with wild-type or catalytically dead Ago2, FIG. 10
Procedure: In these experiments, plasmids including siRNA sequences targeting GFP or TctR integrated in a pre-miR-451 structural mimic were transfected into cells, and the levels of GFP or TetR siRNA in exosomes vs cells (vs. let-7a and miR-16 in exosomes/cells) was measured by qRT-PCR two to three days later. Enrichment of miR-451 derived sequences in exosomes was normalized to 1 for wild-type exosomes.
Testing of the effect of Ago2 on enrichment of siRNA-containing constructs in exosomes using pre-miR-451 structural mimics as described herein was also performed.
In these experiments, plasmids including siRNA sequences targeting GFP or TetR integrated in a pre-miR-451 structural mimic were transfected into cells, and the levels of GFP or TetR siRNA in exosomes vs cells (vs. let-7a and miR-16 in exosomes/cells) was measured by qRT-PCR two to three days later. Enrichment of miR-451 derived sequences in exosomes was normalized to 1 for wild-type exosomes.

MEF cells = assay: Exosomal enrichment of miRNA expressed from transfected pre-miR-451 structural mimic plasmids (RT-qPCR); type: cell-based, mouse; conditions: for Effect of pre-miR-451 backbone on levels of inserted miRNA in cells: MEF cells transfected with plasmids, FIG. 4
Procedure: (§5) (C) The ratio of endogenous miRNAs (let-7a, miR-106, miR-155) was measured in exosomes and exosome-producing cells (MEF, mouse embryonic fibroblasts) by RT-qPCR. y-axis is log 10. miR-451 is not endogenously expressed in these cells.
MEF cells were transfected with pre-miR-451 expressing plasmids (“technology”) containing miR-199, miR-155 or miR-106, and exosomes were purified and RT-qPCR was performed on exosomes and cells.
(§6) Plasmids expressing pre-miR-451, or pre-miR-451 structural mimics including the sequences of other miRNA, were transfected into the two cell types. Expressing miR-106 or miR-155 in the pre-miR-451 structural mimic caused them to be enriched up to 39-fold in exosomes produced by either MEF or breast cancer cells (see FIG. 3B,D). […] In MEF cells, endogenous miR-451 was undetectable in either cells or exosomes (see FIG. 3C).
(§7) Cells were transfected with plasmids using Lipofectamine 2000 according to the manufacturer's instructions. After four hours cells were washed in PBS and incubated with DMEM containing 10% FBS depleted of exosomes by ultracentrifugation according to Thery et al. (2006). After 24 h media was harvested and exosomes were purified by differential ultracentrifugation. RNA was purified from exosomes and exosome-producing cells using Trizol according to the manufacturer's instructions.
as §4, with “The exosome-enriched pellet was re-suspended in PBS for further analyses.” left out

MDA-MB-231 cells = assay: as above; type: cell-based, human; conditions: FIG. 3B
Procedure: as §5, §6, §7
Exosomes were enriched by differential centrifugation as previously described (Thery, 2006, Curr Protoc Cell Biol, Chapter 3, Unit 3 22). […]

Molecule: miR-451: endogenous miRNA strongly enriched in exosomes; generated from pre-miR-451 by Ago2 cleavage, Dicer-independent (AAACCGUUACCAUUACUGAGUUU; expressed or natural sequence; listed as Homo Sapiens)
- Enrichment of miR-451 in exosomes/cell (vs. miR-16 and let-7a) (Macrophage): 1280
- Enrichment of miR-451 in exosomes/cell (vs. miR-16 and let-7a) (JAWSII): 23642
- Enrichment of miR-451 in exosomes/cell (vs. miR-16 and let-7a) (N2A): 4119
- Enrichment of miR-451 in exosomes/cell (vs. miR-16 and let-7a) (BV2): 1887
- Enrichment of miR-451 in exosomes/cell (vs. miR-16 and let-7a) (C8S): 383
- Enrichment of miR-451 in exosomes/cell (vs. miR-16 and let-7a) (NSC34): 73
- Enrichment of miR-451 in exosomes/cell (vs. miR-16 and let-7a) (MN1): 44
- Enrichment of miR-451 in exosomes/cell (vs. miR-16 and let-7a) (C8D30): 22
- Enrichment of miR-451 in exosomes/cell (vs. miR-16 and let-7a) (C8D1A): 40
- Enrichment of miR-451 in exosomes/cell (vs. miR-16 and let-7a) (MSC Line): 5293
- Enrichment of miR-451 in exosomes in several studies [1]: 10-10000 fold
- Enrichment of miR-451 in exosomes/cell (vs. miR-16 and let-7a) (ESC; ESC, exosome-depleted or serum-free media): 3
- Enrichment of miR-451 in exosomes (in words) (ESC; human embryonic stem cells, H9 line, FIG. 7): strongly enriched
- Enrichment of miR-451 in exosomes/cell (vs. miR-16 and let-7a) (Primary MSC): 702
- Endogenous miR-451 in cells or exosomes (MEF; MEF cells, FIG. 3C): undetectable
- Enrichment of miR-451 in exosomes/cell (vs. miR-16 and let-7a) (MEF; MEF, exosome-depleted or serum-free media): 68800
- Ratio of endogenous miRNA in exosomes and exosome-producing cells (in words) (MDA-MB-231; MDA-MB-231, FIG. 3A): highly enriched in exosomes
- Enrichment of miR-451 in exosomes/cell (vs. miR-16 and let-7a) (MDA-MB-231; MDA, exosome-depleted or serum-free media): 5600
- Enrichment of miR-451 in exosomes compared to its levels in cells, compared to other miRNA (MDA-MB-231; endogenous miRNA, MDA-MB-231, FIG. 3A): up to 308 fold

B1: siRNA targeting TetR inserted in a pre-miR-451 structural mimic: pre-miR-451 structural mimic targeting TetR, SEQ ID NO: 20 (nucleic acid)
chain: CUUGGGAAUGGCAAGGUCUUGAUCUUCCAAUACGCAACCGUAUUGGAAGAUCAAGAUCUUGCUAUACCCAGA
modifications: expressed or natural sequence
- Enrichment of siRNA in exosomes in Ago2 knockout cells [2]: still enriched in exosomes

B2: miR-199 in the pre-miR-451 structural mimic: pre-miR-451 structural mimic comprising the miR-199 targeting sequence, plasmid-expressed, SEQ ID NO: 8 (nucleic acid)
chain: CUUGGGAAUGGCAAGGACAGUAGUCUGCACAUUGGUUAAUGUGCAGACUACUGUCUCUUGCUAUACCCAGA
- Effect of pre-miR-451 backbone on levels of inserted miRNA in cells (MEF cells): neglible effects

B3: miR-106 in the pre-miR-451 structural mimic: pre-miR-451 structural mimic comprising the miR-106 targeting sequence, plasmid-expressed, SEQ ID NO: 7 (nucleic acid)
chain: CUUGGGAAUGGCAAGGAAAAGUGCUUACAGUGCAGGUAUGCACUGUAAGCACUUUCUCUUGCUAUACCCAGA
- Effect of pre-miR-451 backbone on levels of inserted miRNA in cells (MEF cells): neglible effects
- Enrichment in exosomes of miRNA inserted in the pre-miR-451 backbone (in words) (MEF cells; MEF cells, FIG. 3D): highly enriched
- Enrichment in exosomes of miRNA inserted in the pre-miR-451 backbone (in words) (MDA-MB-231 cells): comparable with miR-451
